This assay deals with T1, Human M4 (Homo sapiens, UniProt P08173).
T1 construct: expressed in transfected cells
T1 sequence (P08173 1-479): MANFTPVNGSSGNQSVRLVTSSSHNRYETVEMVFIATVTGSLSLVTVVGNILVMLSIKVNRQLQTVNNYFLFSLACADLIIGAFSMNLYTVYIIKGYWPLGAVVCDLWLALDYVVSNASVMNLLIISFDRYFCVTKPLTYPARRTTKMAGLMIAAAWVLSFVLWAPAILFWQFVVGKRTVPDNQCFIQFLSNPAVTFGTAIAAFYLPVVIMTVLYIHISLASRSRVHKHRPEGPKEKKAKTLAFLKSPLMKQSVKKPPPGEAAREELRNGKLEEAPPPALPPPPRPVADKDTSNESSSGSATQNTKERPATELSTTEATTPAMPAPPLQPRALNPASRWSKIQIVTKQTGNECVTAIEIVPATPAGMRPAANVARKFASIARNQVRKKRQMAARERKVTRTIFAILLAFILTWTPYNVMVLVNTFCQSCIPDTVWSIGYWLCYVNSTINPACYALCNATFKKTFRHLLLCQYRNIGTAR
Put plainly: mAChR M4 cell-based functional assay (calcium flux, PAM mode). Details: Emax: dose or concentration left out as unconfirmed. To be noted: for Emax at 30 µM: CHO-K1, % ACh maximum at 30 μM; for Emax at 30 µM / EC50: hM4-Gqi5 CHO-K1 cells; for EC50: concentration-dependent increase in the EC20 acetylcholine response. The gist of the method: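 PAM potency (EC50) and Emax came from four-parameter fits of the rise in EC20 acetylcholine-evoked calcium signal (Fluo-4, FDSS, 1 Hz). Human M4/Gqi5 CHO-K1 stable line; 11-point 1:3 compound series preceded ACh EC20 addition at 144 s, with EC80 ACh added at 230 s.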
(In general: Calcium assays in cells follow changes in intracellular calcium, usually with a dye or a luminescent sensor.)

Turning to `Cc1cc(=O)n2nc(N3CCC(Oc4ccc5c(c4)C(=O)N(C)CC5)CC3)c(C)cc2n1` [Compound 73, 2,8-dimethyl-7-(4-((2-methyl-1-oxo-1,2,3,4-tetrahydroisoquinolin-7-yl)oxy)piperidin-1-yl)-4H-pyrimido[1,2-b]pyridazin-4-one], the maximal response (Emax) (as a rule, the maximal effect, on the per cent scale that the assay sets) at 30 µM was found to be 85% and the EC50 – broadly, the concentration that produces a half-maximal response – stood at 2.63 µM.
On to `Cc1cc(=O)n2nc(N3CCC(Oc4ccc5c(c4)CCN(C)C5=O)CC3)c(C)cc2n1` [Compound 74, 2,8-dimethyl-7-(4-((2-methyl-1-oxo-1,2,3,4-tetrahydroisoquinolin-6-yl)oxy)piperidin-1-yl)-4H-pyrimido[1,2-b]pyridazin-4-one], for which the maximum response (Emax) at 30 µM stood at 84% and the EC50 stood at 2.36 µM.
As to `COc1ncc(OC2CCN(c3nn4c(=O)ccnc4cc3C)CC2)cc1C` [Compound 75, 7-(4-((6-methoxy-5-methylpyridin-3-yl)oxy)piperidin-1-yl)-8-methyl-4H-pyrimido[1,2-b]pyridazin-4-one], the maximal effect (Emax) at 30 µM stood at 84% and the EC50 turned out to be 1.51 µM.
As to `COCc1ccc(OC2CCN(c3nn4c(=O)ccnc4cc3C)CC2)cn1` [Compound 76, 7-(4-((6-(methoxymethyl)pyridin-3-yl)oxy)piperidin-1-yl)-8-methyl-4H-pyrimido[1,2-b]pyridazin-4-one], the Emax at 30 µM amounted to 60% and the concentration giving a half-maximal response (EC50) is above 10 µM.
Regarding `Cc1ccc(OC2CCN(c3nn4c(=O)ccnc4c(C)c3C)CC2)cc1` [Compound 77, 8,9-dimethyl-7-(4-(p-tolyloxy)piperidin-1-yl)-4H-pyrimido[1,2-b]pyridazin-4-one], the Emax at 30 µM turned out to be 101% and the half-maximal effective concentration (EC50) was 0.091 µM.
In the case of `Cc1ccc(OC2CCN(c3nn4c(=O)cc(C(F)F)nc4c(C)c3C)CC2)cn1` [Compound 78, 2-(difluoromethyl)-8,9-dimethyl-7-(4-((6-methylpyridin-3-yl)oxy)piperidin-1-yl)-4H-pyrimido[1,2-b]pyridazin-4-one], the maximum response (Emax) at 30 µM worked out at 95% and the 50% effective concentration (EC50) stood at 0.076 µM.
Regarding `Cc1c(N2CCC(Oc3ccc(Cl)cc3)CC2)nn2c(=O)cc(C(F)F)nc2c1C` [Compound 79, 7-(4-(4-chlorophenoxy)piperidin-1-yl)-2-(difluoromethyl)-8,9-dimethyl-4H-pyrimido[1,2-b]pyridazin-4-one], the Emax at 30 µM was 76% and the EC50 came out at 0.358 µM.
Regarding `Cc1c(N2CCC(Oc3ccc(C(F)(F)F)cc3)CC2)nn2c(=O)ccnc2c1C` [Compound 80, 8,9-dimethyl-7-(4-(4-(trifluoromethyl)phenoxy)piperidin-1-yl)-4H-pyrimido[1,2-b]pyridazin-4-one], the Emax at 30 µM came to 76% and the concentration for a half-maximal effect (EC50) was 2.18 µM.
As to `Cc1c(N2CCC(Oc3ccc(C(F)(F)F)cc3)CC2)nn2c(=O)cc(C(F)F)nc2c1C` [Compound 81, 2-(difluoromethyl)-8,9-dimethyl-7-(4-(4-(trifluoromethyl)phenoxy)piperidin-1-yl)-4H-pyrimido[1,2-b]pyridazin-4-one], the maximal effect (Emax) at 30 µM stood at 73% and the concentration for a half-maximal effect (EC50) was 2.3 µM.
With `Cc1cc(=O)n2nc(N3CCC(Oc4ccc5c(c4)CCNC5=O)CC3)c(C)cc2n1` [Compound 82, 2,8-dimethyl-7-(4-((1-oxo-1,2,3,4-tetrahydroisoquinolin-6-yl)oxy)piperidin-1-yl)-4H-pyrimido[1,2-b]pyridazin-4-one], the maximum response (Emax) at 30 µM came to 74% and the EC50 was 3.34 µM.
On the same counts, the results for `Cc1c(N2CCC(Oc3ccc(F)cc3)CC2)nn2c(=O)ccnc2c1C` [Compound 83, 7-(4-(4-fluorophenoxy)piperidin-1-yl)-8,9-dimethyl-4H-pyrimido[1,2-b]pyridazin-4-one] are 89% and 0.186 µM.
With `Cc1c(N2CCC(Oc3ccc(F)cc3)CC2)nn2c(=O)cc(C(F)F)nc2c1C` [Compound 84, 2-(difluoromethyl)-7-(4-(4-fluorophenoxy)piperidin-1-yl)-8,9-dimethyl-4H-pyrimido[1,2-b]pyridazin-4-one], the Emax at 30 µM worked out at 86% and the EC50 came out at 0.141 µM.
For the molecule `Cc1ccc(OC2CCN(c3nn4c(=O)cc(C(F)F)nc4c(C)c3C)CC2)cc1` [Compound 85, 2-(difluoromethyl)-8,9-dimethyl-7-(4-(p-tolyloxy)piperidin-1-yl)-4H-pyrimido[1,2-b]pyridazin-4-one], the maximal effect (Emax) at 30 µM came to 101% and the EC50 turned out to be 0.385 µM.
As to `Cc1ccc(OC2CCN(c3nn4c(=O)ccnc4c(C)c3C)CC2)cn1` [Compound 86, 8,9-dimethyl-7-(4-((6-methylpyridin-3-yl)oxy)piperidin-1-yl)-4H-pyrimido[1,2-b]pyridazin-4-one], the Emax at 30 µM is 101% and the EC50 stood at 0.341 µM.
`Cc1c(N2CCC(Oc3ccc(Cl)cc3)CC2)nn2c(=O)ccnc2c1C` [Compound 87]: the concentration for a half-maximal effect (EC50) is 0.268 µM. Besides, the Emax (CHO-K1, read-out: Human M4 Emax (%)*) worked out at 93%.
For the molecule `Cc1ccc(OC2CCN(c3nn4c(=O)ccnc4cc3C)CC2)cc1F` [Compound 88, 7-(4-(3-fluoro-4-methylphenoxy)piperidin-1-yl)-8-methyl-4H-pyrimido[1,2-b]pyridazin-4-one], the Emax at 30 µM was 77% and the EC50 turned out to be 0.383 µM.
For `CCc1ccc(OC2CCN(c3nn4c(=O)ccnc4cc3C)CC2)cc1` [Compound 89, 7-(4-(4-ethylphenoxy)piperidin-1-yl)-8-methyl-4H-pyrimido[1,2-b]pyridazin-4-one], the Emax at 30 µM was 76% and the half-maximal effective concentration (EC50) is 0.503 µM.
In the same order, the values of `Cc1cc2nccc(=O)n2nc1N1CCC(Oc2ccc(C(C)C)cc2)CC1` [Compound 90, 7-(4-(4-isopropylphenoxy)piperidin-1-yl)-8-methyl-4H-pyrimido[1,2-b]pyridazin-4-one] are 63% and 1.11 µM.
For `CCCc1ccc(OC2CCN(c3nn4c(=O)ccnc4cc3C)CC2)cc1` [Compound 91, 8-methyl-7-(4-(4-propylphenoxy)piperidin-1-yl)-4H-pyrimido[1,2-b]pyridazin-4-one], the maximal effect (Emax) at 30 µM is 70% and the EC50 turned out to be 1.07 µM.
With `[2H]C1(Oc2ccc(C)cc2)CCN(c2nn3c(=O)ccnc3cc2C)CC1` [Compound 92, 8-methyl-7-(4-(p-tolyloxy)piperidin-1-yl-4-d)-4H-pyrimido[1,2-b]pyridazin-4-one], the Emax at 30 µM came out at 89% and the EC50 was 0.632 µM.
With `COCc1ncc(OC2CCN(c3nn4c(=O)ccnc4cc3C)CC2)cc1C` [Compound 93, 7-(4-((6-(methoxymethyl)-5-methylpyridin-3-yl)oxy)piperidin-1-yl)-8-methyl-4H-pyrimido[1,2-b]pyridazin-4-one], the maximum response (Emax) at 30 µM came to 70% and the concentration for a half-maximal effect (EC50) was above 10 µM.
Turning to `[2H]C1(Oc2ccc3c(c2)OC([2H])([2H])C([2H])([2H])O3)CCN(c2nn3c(=O)cc(C)nc3c(C)c2C)CC1` [Compound 94, 7-(4-((2,3-dihydrobenzo[b][1,4]dioxin-6-yl-2,2,3,3-d4)oxy)piperidin-1-yl-4-d)-2,8,9-trimethyl-4H-pyrimido[1,2-b]pyridazin-4-one], the maximal effect (Emax) at 30 µM came out at 84% and the concentration giving a half-maximal response (EC50) worked out at 0.03 µM.
In the same order, the values of `[2H]C1(Oc2ccc3c(c2)OC([2H])([2H])C([2H])([2H])O3)CCN(c2nn3c(=O)cc(C(F)(F)F)nc3c(C)c2C)CC1` [Compound 95, 7-(4-((2,3-dihydrobenzo[b][1,4]dioxin-6-yl-2,2,3,3-d4)oxy)piperidin-1-yl-4-d)-8,9-dimethyl-2-(trifluoromethyl)-4H-pyrimido[1,2-b]pyridazin-4-one] are 87% and 0.073 µM.
As for `[2H]C1(Oc2ccc3c(c2)OC([2H])([2H])C([2H])([2H])O3)CCN(c2nn3c(=O)cc(C(C)C)nc3c(C)c2C)CC1` [Compound 96, 7-(4-((2,3-dihydrobenzo[b][1,4]dioxin-6-yl-2,2,3,3-d4)oxy)piperidin-1-yl-4-d)-2-isopropyl-8,9-dimethyl-4H-pyrimido[1,2-b]pyridazin-4-one], the maximal effect (Emax) at 30 µM was found to be 85% and the EC50 was determined as 0.099 µM.
Turning to `[2H]C1(Oc2ccc3c(c2)OC([2H])([2H])C([2H])([2H])O3)CCN(c2nn3c(=O)ccnc3c(C3CC3)c2C)CC1` [Compound 97, 9-cyclopropyl-7-(4-((2,3-dihydrobenzo[b][1,4]dioxin-6-yl-2,2,3,3-d4)oxy)piperidin-1-yl-4-d)-8-methyl-4H-pyrimido[1,2-b]pyridazin-4-one], the Emax at 30 µM turned out to be 78% and the EC50 is 0.424 µM.
On to `[2H]C1(Oc2ccc3c(c2)OC([2H])([2H])C([2H])([2H])O3)CCN(c2nn3c(=O)cc(CC)nc3c(C)c2C)CC1` [Compound 98, 7-(4-((2,3-dihydrobenzo[b][1,4]dioxin-6-yl-2,2,3,3-d4)oxy)piperidin-1-yl-4-d)-2-ethyl-8,9-dimethyl-4H-pyrimido[1,2-b]pyridazin-4-one], for which the Emax at 30 µM was 90% and the EC50 is 0.064 µM.

The record behind these values is patent US11884676B2, “Substituted pyrimido[1,2-b]pyridazines as positive allosteric modulators of the muscarinic acetylcholine receptor M4” (Vanderbilt University, priority 2020, dated 2024).
